Results: patent US20230302021A1, “COMPOSITIONS AND METHODS FOR TREATING CASTRATION-RESISTANT PROSTATE CANCER” (Purdue Research Foundation, priority 2022, published 2023)

Experiments:
SOAT1 = molecular target: T1, SOAT1 (Homo sapiens, UniProt P35610); settings: cited from earlier work
T1 sequence (P35610 1-550): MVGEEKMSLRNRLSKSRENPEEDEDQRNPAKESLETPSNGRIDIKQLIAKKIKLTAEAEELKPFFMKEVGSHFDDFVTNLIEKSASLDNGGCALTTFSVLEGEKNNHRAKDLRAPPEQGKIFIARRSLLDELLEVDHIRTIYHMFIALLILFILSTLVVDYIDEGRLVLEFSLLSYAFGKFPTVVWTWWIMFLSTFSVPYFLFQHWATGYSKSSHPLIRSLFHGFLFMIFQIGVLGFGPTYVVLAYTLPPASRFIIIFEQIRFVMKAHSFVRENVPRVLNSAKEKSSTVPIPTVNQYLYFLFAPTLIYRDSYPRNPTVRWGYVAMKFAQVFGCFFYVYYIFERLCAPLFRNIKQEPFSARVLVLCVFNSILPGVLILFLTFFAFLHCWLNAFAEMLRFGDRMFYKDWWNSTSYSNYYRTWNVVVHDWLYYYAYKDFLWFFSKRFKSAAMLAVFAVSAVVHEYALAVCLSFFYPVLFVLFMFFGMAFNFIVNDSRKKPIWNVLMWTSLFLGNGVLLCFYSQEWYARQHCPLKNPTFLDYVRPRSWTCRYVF

[1] = rats, dogs, and humans; cited from earlier work
22RV1 cells = assay: Cell proliferation / viability (MTT) assay; assay type: cell-based; settings: for proliferation of 22RV1 cells: ENZ-resistant 22RV1 cells, FIG. 1
Method: Cell viability assay: An MTT assay was performed to evaluate the effect of drugs on cell viability. Ten thousand cells per well were plated in a 96-well plate and treated with drugs the following day. The MTT solution (0.5 mg/ml) was then applied to the cells for 1 h at 37° C. with 5% CO2. Precipitated formazan was dissolved in DMSO and quantified at 570 nm using a microplate reader (Beckman-Coulter). Combination index: The data obtained from the MTT assay were used to calculate cell viability and also used to calculate combination index (CI). The Chou-Talalay method was applied to determine the CI using CompuSyn software (Biosoft).

22RV1-derived xenograft = assay: 22RV1-derived mouse xenograft model; assay type: in vivo; settings: castrated nude mice, daily for 3 weeks; ENZ 25 mg/kg/day oral gavage, AVA 20 mg/kg/day intraperitoneal
Method: All procedures were approved by the Purdue Animal Care and Use Committee. Five-week-old male nude mice (Jackson Laboratory) were purchased for the experiment. […] ENZ stock prepared in DMSO was diluted in corn oil for oral gavage and AVA solution was prepared. Once the tumors reached approximately 50-100 mm^3, the mice were randomly divided into four groups for daily drug administration for 3 weeks: (i) vehicle oral gavage (corn oil)+vehicle intraperitoneal injection (2% tween-80 (v/v) and 3.2 mg/mL 2-hydroxypropyl-β-cyclodextrin in PBS); (ii) ENZ alone (25 mg/kg body weight/day) by oral gavage; (iii) AVA alone (20 mg/kg body weight/day) by intraperitoneal injection; (iv) ENZ (25 mg/kg/day)+AVA (20 mg/kg/day). Tumors were monitored every two days with a caliper and tumor volumes were calculated with the formula V=0.5×L×W^2 (where V is volume, L is length, W is the width). At the end of the study, mice were euthanized and tumor tissues were excised and weighted.

AR signaling = assay: qPCR of genes related to AR signaling in 22RV1 cells; assay type: cell-based; settings: 20 μM ENZ in presence or absence of 4 μM avasimibe, 24 h

Compound	IC50 (SOAT1)	safety when administered [1]	proliferation of 22RV1 cells (22RV1 cells)	tumor growth (appearance, average tumor volume, tumor weight) (22RV1-derived xenograft)	AR expression (mRNA) (AR signaling)	AR-V7 expression (mRNA) (AR signaling)	Nkx3.1 expression (mRNA) (AR signaling)	Psa expression (mRNA) (AR signaling)	proliferation of shRNA-transfected 22RV1 cells (22RV1 cells; shCTRL or shSOAT1 with DMSO or ENZ, FIG. 5B)	IC50 value for SOAT1 relative to the corresponding IC50 value for SOAT2 (SOAT1; SOAT1 vs SOAT2 selectivity)
CC(C)c1cc(C(C)C)c(CC(=O)NS(=O)(=O)Oc2c(C(C)C)cccc2C(C)C)c(C(C)C)c1 [AVA, avasimibe]	24 µM	considered safe	slightly suppressed cell proliferation	did not sufficiently delay the tumor growth	did not change	did not change	downregulated	downregulated	–	–
CNC(=O)c1ccc(N2C(=S)N(c3ccc(C#N)c(C(F)(F)F)c3)C(=O)C2(C)C)cc1F [ENZ, enzalutamide]	–	–	resistant	did not sufficiently delay the tumor growth	–	–	–	–	little effect on the proliferation	–
CCOC(=O)OC(=O)OCC [pyrocarbonate, diethyl pyrocarbonate]	–	–	–	–	–	–	–	–	–	at least twice or higher
